Assay results reported in US11802113B2, “Substituted pyrazole compounds, compositions containing same, and use thereof” (Shenzhen TargetRx, Inc., priority 2019, dated 2023).

Assays:
[1] = Metabolic stability evaluation, human liver microsome; format: in vitro ADME; conditions: liver microsomes, pH 7.4, human liver microsome 0.5 mg/mL, compound 1 μM, NADPH, 37° C.; for microsomal CLint at 1 μM: read-out: HLM CL; for half-life at 1 μM: read-out: HLM T1/2
Protocol: (§1) (4) Metabolic Stability Evaluation
(§2) Microsome experiment: human liver microsome: 0.5 mg/mL, Xenotech; rat liver microsome: 0.5 mg/mL, Xenotech; coenzyme (NADPH/NADH): 1 mM, Sigma Life Science; magnesium chloride: 5 mM, 100 mM phosphate buffer (pH 7.4).
(§3) Preparation of stock solution: a certain amount of the example compound powder and control compound powder were accurately weighed, and respectively dissolved to 5 mM with DMSO.
(§4) Preparation of phosphate buffer (100 mM, pH7.4): 150 mL of 0.5M potassium dihydrogen phosphate and 700 mL of 0.5M dipotassium hydrogen phosphate prepared beforehand were mixed, with pH of the mixture adjusted to 7.4 with 0.5M dipotassium hydrogen phosphate solution. Before use, the mixture was diluted by 5 folds with ultrapure water and magnesium chloride was added to obtain the phosphate buffer (100 mM), which contains 100 mM potassium phosphate, 3.3 mM magnesium chloride, and has pH 7.4.
(§5) NADPH regeneration system solution (containing 6.5 mM NADP, 16.5 mM G-6-P, 3 U/mL G-6-P D, 3.3 mM magnesium chloride) was prepared, and placed on wet ice before use.
(§6) Preparation of stop solution: a solution of 50 ng/mL propranolol hydrochloride and 200 ng/mL tolbutamide (internal standard) in acetonitrile. 25057.5 μL of phosphate buffer (pH 7.4) was taken into a 50 mL centrifuge tube, added with 812.5 μL of human liver microsome, and mixed well to obtain a liver microsome diluent with a protein concentration of 0.625 mg/mL. 25057.5 μL of phosphate buffer (pH 7.4) was taken into a 50 mL centrifuge tube, added with 812.5 μL of SD rat liver microsome, and mixed well to obtain a liver microsome diluent with a protein concentration of 0.625 mg/mL.
(§7) Incubation of the samples: the stock solutions of the corresponding compounds were respectively diluted to 0.25 mM with an aqueous solution containing 70% acetonitrile to obtain working solutions for later use. 398 μL of human liver microsome and rat liver microsome diluents were respectively taken and added to a 96-well incubation plate (N=2), added with 2 μL of 0.25 mM working solution respectively, and mixed well.
Determination of metabolic stability: 300 μL of pre-cooled stop solution was added to each well of a 96-well deep-well plate, and the plate was placed on ice as a stop plate. The 96-well incubation plate and the NADPH regeneration system were placed in a 37° C. water bath, shaken at 100 rpm, and pre-incubated for 5 minutes. 80 μL of incubation solution was taken out of each well of the incubation plate and added to the stop plate, mixed well, and supplemented with 20 μL of NADPH regeneration system solution to obtain the 0 min sample. Then 80 μL of NADPH regeneration system solution was added to each well of the incubation plate to initiate the reaction and start timing. The reaction concentration of the corresponding compound was 1 μM, and the protein concentration was 0.5 mg/mL. At 10, 30, and 90 minutes of reaction, 100 μL of the reaction solution was taken and added to the stop plate, and vortexed for 3 minutes to stop the reaction. The stop plate was centrifuged at 5000×g for 10 min at 4° C. 100 μL of supernatant was taken to a 96-well plate pre-added with 100 μL of distilled water, mixed well, and subjected to sample analysis by LC-MS/MS.
Data analysis: the peak areas of the corresponding compound and internal standard were detected through the LC-MS/MS system, and the ratio of the peak area of the compound to the internal standard was calculated. The natural logarithm of the remaining percentage of the compound was plotted against time to measure the slope and calculate t1/2 and CLint according to the following equations, where V/M is equal to 1/protein concentration.
The compounds of the present invention and the corresponding non-deuterated compounds were simultaneously tested for comparison and evaluated for the metabolic stability in human and rat liver microsomes. The non-deuterated compound Darolutamide was used as the control.

[2] = Metabolic stability evaluation, rat liver microsome; format: in vitro ADME; conditions: SD, liver microsomes, pH 7.4, rat liver microsome 0.5 mg/mL, compound 1 μM, NADPH, 37° C.; for microsomal CLint at 1 μM: read-out: RLM CL; for half-life at 1 μM: read-out: RLM T1/2
Protocol: as §1, §2, §3, §4, §5, §6, §7
Determination of metabolic stability: 300 μL of pre-cooled stop solution was added to each well of a 96-well deep-well plate, and the plate was placed on ice as a stop plate. […]
Data analysis: the peak areas of the corresponding compound and internal standard were detected through the LC-MS/MS system, and the ratio of the peak area of the compound to the internal standard was calculated. […]
The compounds of the present invention and the corresponding non-deuterated compounds were simultaneously tested for comparison and evaluated for the metabolic stability in human and rat liver microsomes. […]

microsomal CLint at 1 μM [1] [µL/min/mg] | half-life at 1 μM [1] [h] | microsomal CLint at 1 μM [2] [µL/min/mg] | half-life at 1 μM [2] [h] | Structure (SMILES)
4 | 5.83 | – | – | [2H]C([2H])([2H])C([2H])(O)c1cc(C(=O)N[C@@H](C)Cn2ccc(-c3ccc(C#N)c(Cl)c3)n2)n[nH]1 (stereo partly drawn) [Example 3, N—((S)-1-(3-(3-chloro-4-cyanophenyl)-1H-pyrazol-1-yl)prop-2-yl)-5-(1-hydroxylethyl-1,2,2,2-d4)-1H-pyrazole-3-carboxamide]
9.1 | 2.55 | – | – | [2H]C([2H])([2H])C(O)c1cc(C(=O)N[C@@H](C)Cn2ccc(-c3ccc(C#N)c(Cl)c3)n2)n[nH]1 (stereo partly drawn) [Example 2, N—((S)-1-(3-(3-chloro-4-cyanophenyl)-1H-pyrazol-1-yl)prop-2-yl)-5-(1-hydroxylethyl-2,2,2-d3)-1H-pyrazole-3-carboxamide]
6.4 | 3.62 | – | – | [2H]C([2H])([2H])C(O)c1cc(C(=O)N[C@@H](C)C([2H])([2H])n2ccc(-c3ccc(C#N)c(Cl)c3)n2)n[nH]1 (stereo partly drawn) [Example 6, N—((S)-1-(3-(3-chloro-4-cyanophenyl)-1H-pyrazol-1-yl)prop-2-yl-1,1-d2)-5-(1-hydroxyethyl-2,2,2-d3)-1H-pyrazole-3-carboxamide]
6.2 | 3.7 | – | – | [2H]C(C)(O)c1cc(C(=O)N[C@@H](C)Cn2ccc(-c3ccc(C#N)c(Cl)c3)n2)n[nH]1 (stereo partly drawn) [Example 1, N—((S)-1-(3-(3-chloro-4-cyanophenyl)-1H-pyrazol-1-yl)prop-2-yl)-5-(1-hydroxylethyl-1-d)-1H-pyrazole-3-carboxamide]

The next lines start with the compound.

Structure (SMILES) | microsomal CLint at 1 μM [1] [µL/min/mg] | half-life at 1 μM [1] [h] | microsomal CLint at 1 μM [2] [µL/min/mg] | half-life at 1 μM [2] [h]
[2H]C([2H])([C@H](C)NC(=O)c1cc(C([2H])(O)C([2H])([2H])[2H])[nH]n1)n1ccc(-c2ccc(C#N)c(Cl)c2)n1 (stereo partly drawn) [Example 7, N—((S)-1-(3-(3-chloro-4-cyanophenyl)-1H-pyrazol-1-yl)prop-2-yl-1,1-d2)-5-(1-hydroxyethyl-1,2,2,2-d4)-1H-pyrazole-3-carboxamide] | 6.9 | 3.36 | 7.1 | 3.25
[2H]C(C)(O)c1cc(C(=O)N[C@@H](C([2H])([2H])[2H])C([2H])([2H])n2ccc(-c3ccc(C#N)c(Cl)c3)n2)n[nH]1 (stereo partly drawn) [Example 10, N—((S)-1-(3-(3-chloro-4-cyanophenyl)-1H-pyrazol-1-yl)prop-2-yl-1,1,3,3,3-d5)-5-(1-hydroxyethyl-1-d)-1H-pyrazole-3-carboxamide] | 4.4 | 5.29 | – | –
[2H]C([2H])([2H])[C@H](NC(=O)c1cc(C(C)O)[nH]n1)C([2H])([2H])n1ccc(-c2ccc(C#N)c(Cl)c2)n1 (stereo partly drawn) [Example 9, N—((S)-1-(3-(3-chloro-4-cyanophenyl)-1H-pyrazol-1-yl)prop-2-yl-1,1,3,3,3-d5)-5-(1-hydroxyethyl)-1H-pyrazole-3-carboxamide] | 8.1 | 2.85 | – | –
[2H]C([2H])([C@H](C)NC(=O)c1cc(C(C)O)[nH]n1)n1ccc(-c2ccc(C#N)c(Cl)c2)n1 (stereo partly drawn) [Example 4, N—((S)-1-(3-(3-chloro-4-cyanophenyl)-1H-pyrazol-1-yl)prop-2-yl-1,1-d2)-5-(1-hydroxyethyl)-1H-pyrazole-3-carboxamide] | 8.5 | 2.7 | – | –
CC(O)c1cc(C(=O)N[C@@H](C)Cn2ccc(-c3ccc(C#N)c(Cl)c3)n2)[nH]n1 (stereo partly drawn) [Darolutamide, N—((S)-1-(3-(3-chloro-4-cyanophenyl)-1H-pyrazol-1-yl)-prop-2-yl)-5-(1-hydroxyethyl)-1H-pyrazole-3-carboxamide, reference compound] | 8.5 | 2.72 | 12.2 | 1.9
[2H]C(C)(O)c1cc(C(=O)N[C@@H](C)C([2H])([2H])n2ccc(-c3ccc(C#N)c(Cl)c3)n2)n[nH]1 (stereo partly drawn) [Example 5, N—((S)-1-(3-(3-chloro-4-cyanophenyl)-1H-pyrazol-1-yl)prop-2-yl-1,1-d2)-5-(1-hydroxyethyl-1-d)-1H-pyrazole-3-carboxamide] | 4.3 | 5.36 | – | –
[2H][C@](C)(Cn1ccc(-c2ccc(C#N)c(Cl)c2)n1)NC(=O)c1cc(C(C)O)[nH]n1 (stereo partly drawn) [Example 8, N—((S)-1-(3-(3-chloro-4-cyanophenyl)-1H-pyrazol-1-yl)prop-2-yl-2-d)-5-(1-hydroxyethyl)-1H-pyrazole-3-carboxamide] | 7.3 | 3.17 | – | –
